Experimental data reported in US10487348B2, “3-alpha-hydroxysteroid dehydrogenase mutants and process for the preparation of ursodeoxycholic acid” (Pharmazell GmbH, priority 2014, dated 2019).
Substitutions are numbered along the chain they refer to.

Experiments:
[1] = target: T1, Comamonas testosteroni 3α-HSDH mutant [L68A], N-terminal hexahistidine tag (Comamonas testosteroni, UniProt P80702, L68A)
T1 sequence (P80702 1-257 L68A): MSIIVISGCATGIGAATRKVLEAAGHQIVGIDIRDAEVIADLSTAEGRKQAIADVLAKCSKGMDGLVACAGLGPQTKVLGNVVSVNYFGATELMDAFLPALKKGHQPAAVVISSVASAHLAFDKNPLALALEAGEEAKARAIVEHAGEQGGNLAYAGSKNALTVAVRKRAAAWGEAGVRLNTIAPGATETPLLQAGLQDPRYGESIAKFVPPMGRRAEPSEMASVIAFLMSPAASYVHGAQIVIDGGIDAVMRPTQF
Procedure: After cultivation and expression, the proteins were purified by means of Ni-NTA chromatography, the specific activities were determined and their kinetic constants were determined.

[2] = target: T2, Comamonas testosteroni 3α-HSDH, wild type, N-terminal hexahistidine tag (Comamonas testosteroni, UniProt P80702); experiment: Michaelis-Menten kinetics of wild-type 3α-HSDH with N-terminal His tag; type: biochemical; settings: Table 14, substrate DHCA, apparent values
T2 sequence (P80702 1-257): T1 sequence (P80702 1-257 L68A) with A68L
Description: The His-tag allows for very simple purification of the HSDH protein since this sequence is bound with high specificity by specific chromatographic material (NTA (Ni-nitrilotriacetate)-modified support material, loaded with divalent nickel ions, for example “His Pur Ni-NTA” (Nimagen B. V., Nijmegen, The Netherlands)). To this end, the cell-free crude extract is applied to a dropping column comprising this material, which dropping column has previously been equilibrated with the disruption buffer (3 to 5 column volumes). Weakly binding protein was removed by washing with 3 to 5 column volumes of wash buffer (20 mM imidazole, 50 mM sodium phosphate, 300 mM NaCl, pH 8). The His-tag-3α-HSDH protein was eluted with imidazole-comprising elution buffer (250 mM imidazole, 50 mM sodium phosphate, 300 mM NaCl, pH 8). The process was carried out at room temperature. The imidazole which was present was to be removed by buffer exchange.
(§1) The activity of the 3α-HSDH and of the mutants was determined using a photometric assay, where the decrease in absorbance was measured at 340 nm over a period of 30 seconds.
(§2) The targeted exchange of amino acid radicals was performed analogously to Example 2B.
Following cultivation and expression, the cells were harvested, and the specific activities of the cell-free crude extracts were determined at substrate concentrations of 10 mM DHCA. […]

[3] = target: T3, Comamonas testosteroni 3α-HSDH mutant [T188G], N-terminal hexahistidine tag (Comamonas testosteroni, UniProt P80702, T188G); experiment: Kinetics of 3α-HSDH [T188G], N-terminal His tag; type: biochemical; settings: DHCA
T3 sequence (P80702 1-257 T188G): T1 sequence (P80702 1-257 L68A) with A68L, T188G
Procedure: as §1, §2
Following cultivation and expression, the cells were harvested, and the specific activities of the cell-free crude extracts were determined at substrate concentrations of 10 mM DHCA. The enzyme variants where the activity measurements with crude extract enzyme were most promising were purified by means of Ni-NTA chromatography, and their kinetic constants were determined by measurements with different DHCA concentrations of between 10 μM and 20 mM. In addition, an expression check by means of SDS PAGE was carried out for all mutants.

[4] = target: T4, Comamonas testosteroni 3α-HSDH mutant [P185A], N-terminal hexahistidine tag (Comamonas testosteroni, UniProt P80702, P185A); experiment: Kinetics of 3α-HSDH [P185A], N-terminal His tag
T4 sequence (P80702 1-257 P185A): T1 sequence (P80702 1-257 L68A) with A68L, P185A

[5] = target: T5, Comamonas testosteroni 3α-HSDH, wild type, C-terminal 3×His tag (Comamonas testosteroni, UniProt P80702); experiment: Michaelis-Menten kinetics of 3α-HSDH with 3×His tag; settings: His tag length 3; DHCA 10 μM-10 mM; NADH 0.2 mM; purified
T5 sequence (P80702 with tags, fused parts or gaps): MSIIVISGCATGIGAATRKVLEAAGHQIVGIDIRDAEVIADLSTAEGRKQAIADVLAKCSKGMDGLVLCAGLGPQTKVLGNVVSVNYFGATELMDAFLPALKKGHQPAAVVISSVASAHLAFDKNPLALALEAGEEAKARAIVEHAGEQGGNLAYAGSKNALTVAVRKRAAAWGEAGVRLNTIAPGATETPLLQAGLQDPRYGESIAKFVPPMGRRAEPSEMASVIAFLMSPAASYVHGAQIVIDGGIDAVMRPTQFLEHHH
Description: The His-tag allows for very simple purification of the HSDH protein since this sequence is bound with high specificity by specific chromatographic material (NTA (Ni-nitrilotriacetate)-modified support material, loaded with divalent nickel ions, for example “His Pur Ni-NTA” (Nimagen B. V., Nijmegen, The Netherlands)). To this end, the cell-free crude extract is applied to a dropping column comprising this material, which dropping column has previously been equilibrated with the disruption buffer (3 to 5 column volumes). Weakly binding protein was removed by washing with 3 to 5 column volumes of wash buffer (20 mM imidazole, 50 mM sodium phosphate, 300 mM NaCl, pH 8). […] The process was carried out at room temperature. The imidazole which was present was to be removed by buffer exchange.
Following expression (25° C., 0.5 mM, IPTG, 20 hours), the protein was purified, and the expression and the purification were checked by means of an SDS gel. […] The NADH concentration was 0.2 mM. Purified protein was employed in the measurements.

[6] = target: T6, Comamonas testosteroni 3α-HSDH, wild type, without His tag, SEQ ID NO:4 (Comamonas testosteroni, UniProt P80702); experiment: Michaelis-Menten kinetics of wild-type 3α-HSDH without His tag
T6 sequence (P80702 1-257): T1 sequence (P80702 1-257 L68A) with A68L

[7] = Table 14, substrate DHCA, tag N, NADH 0.2 mM, apparent values
[8] = Table 14, substrate DHCA, tag N, apparent values

Compound: C[C@H](CCC(=O)O)[C@H]1CC[C@H]2[C@@H]3C(=O)C[C@@H]4CC(=O)CC[C@]4(C)[C@H]3CC(=O)[C@]12C [DHCA, dehydrocholic acid]
- kcat [1, 7]: 138.0 s⁻¹
- vmax [1, 7]: 290.0 ± 45.4 U/mg
- remaining activity at 1000 µM ([1]; read-out: residual activity): ~15%
- remaining activity at 10000 µM ([1]; read-out: residual activity): ~8%
- kcat [2]: 47.1 s⁻¹
- vmax [2]: 98.7 ± 4.7 U/mg
- substrate excess inhibition [3]: No pronounced substrate excess inhibition
- kcat [4, 8]: 48.5 s⁻¹
- vmax [4, 8]: 102.8 ± 5.7 U/mg
- remaining activity at 10000 µM ([4]; read-out: residual activity): 5%
- kcat [5]: 6.5 ± 2.1 s⁻¹
- vmax [5]: 14.3 ± 4.8 U/mg
- vmax ([6]; Table 14, substrate DHCA, no tag, apparent values): 134 ± 3.8 U/mg
- residual activity ([6]; after increasing DHCA further above approximately 1 mM, substrate excess inhibition): 10-20%
